One test addresses T1, SARS-Cov-2 3CLpro (Severe acute respiratory syndrome coronavirus 2, UniProt P0DTD1).
T1 construct: 3CLpro and HRV3C was added using a Multidrop Combi
In words: biochemical. Conditions: 3CLpro, 30 mins preincubation, SAMDI-MS; read-out: SARS-Cov-2 IC50 (class).

In the next test the target is T2, HRV3C (Human rhinovirus 14, UniProt P03303).
T2 construct: 3CLpro and HRV3C was added using a Multidrop Combi
The test is described as follows: biochemical. Details: species or system HRV. Particulars: HRV3C, 30 mins preincubation, SAMDI-MS.

Test [1] deals with human beta-coronavirus OC43. In words: OC43 coronavirus antiviral assay in HeLa cells (cytopathic effect, cell-titer-glo). Conditions: Betacoronavirus 1, OC43, HeLa, 144 h, 6 days at 33° C. Format: cell-based. Background: Damage to the host cells serves as the signal in cytopathic effect assays.
For test [2], the system named is SARS-CoV-2-GHB-03021/2020. The test is classed as cell-based. Conditions: read-out: VeroE6 + CP (EC50).
The subject of test [3] is B.1.1.7 lineage SARS-CoV-2. In words: microbe, parasite or virus in culture. The test is classed as cell-based. Conditions: Severe acute respiratory syndrome coronavirus 2, 96 h, read-out: A549-dual_ACE2_TMPRSS2 (EC50).
The next test concerns the target T3, human cathepsin L (Homo sapiens, UniProt P07711).
T3 construct: purchased R&D Systems
In words: Cathepsin L assay (Z-FR-AMC fluorescence). The test is classed as biochemical. Particulars: 10 pM human cathepsin L, 30 mins preincubation, Z-FR-AMC 2 μM. The method in brief:
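Human cathepsin L (10 pM) was preincubated 30 min with compound, then reactions were started with Z-FR-AMC substrate (2 μM final). AMC fluorescence (355/460 nm) was read every 2 min over 30 min. IC50 came from a four-parameter curve fit.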

Molecules are shown by their SMILES. Read-outs that look alike come from different tables or passages of the source.

This note sets out measurements from patent US12252481B2, “Anti-viral compounds” (Aligos Therapeutics, Inc., priority 2021, dated 2025).

T3 sequence (P07711 114-333): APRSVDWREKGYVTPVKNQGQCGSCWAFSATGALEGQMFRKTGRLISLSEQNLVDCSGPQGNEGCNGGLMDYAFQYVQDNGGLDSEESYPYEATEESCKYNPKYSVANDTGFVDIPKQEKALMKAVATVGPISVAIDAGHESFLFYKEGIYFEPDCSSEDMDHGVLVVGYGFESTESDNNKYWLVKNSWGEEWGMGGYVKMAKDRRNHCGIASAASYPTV
T2 sequence (P03303 1538-1719): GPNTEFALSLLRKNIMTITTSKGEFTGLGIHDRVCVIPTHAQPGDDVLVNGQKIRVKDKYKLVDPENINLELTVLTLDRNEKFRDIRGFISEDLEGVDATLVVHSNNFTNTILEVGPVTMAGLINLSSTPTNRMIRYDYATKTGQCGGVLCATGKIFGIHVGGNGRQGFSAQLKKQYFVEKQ

Consider `O=C(NC1CC1)C(=O)C(C[C@@H]1CCNC1=O)NC(=O)[C@@H]1[C@@H]2[C@H](CN1C(=O)[C@@H]1C[C@]13CCCc1ccccc13)[C@@H]1C=C[C@H]2C1` (stereo partly drawn) [Example 11, (1S,3aR,4S,7R,7aS)—N-(4-(cyclopropylamino)-3,4-dioxo-1-((S)-2-oxopyrrolidin-3-yl)butan-2-yl)-2-((1R,2R)-3′,4′-dihydro-2′H-spiro[cyclopropane-1,1′-naphthalene]-2-carbonyl)-2,3,3a,4,7,7a-hexahydro-1H-4,7-methanoisoindole-1-carboxamide], for which the results for the IC50 at SARS-Cov-2 3CLpro, on HRV3C (read-out: HRV IC50 (class)) and against human cathepsin L were less than 20 nM, 200 to 2000 nM and no less than 10000 nM, respectively. For the same molecule, the EC50 in test [1] (read-out: EC50 (class)), in test [2] and in test [3] was 100 to 1000 nM in each case.
With `[2H]C1([2H])C[C@@H](C[C@@H](C#N)NC(=O)[C@@H]2[C@@H]3[C@H](CN2C(=O)[C@@H](NC(=O)C(F)(F)F)C(C)(C)C)[C@@H]2C=C[C@H]3C2)C(=O)N1` [Compound 50, (1S,3aR,4S,7R,7aS)-N-((S)-1-cyano-2-((S)-2-oxopyrrolidin-3-yl-5,5-d2)ethyl)-2-((S)-3,3-dimethyl-2-(2,2,2-trifluoroacetamido)butanoyl)-2,3,3a,4,7,7a-hexahydro-1H-4,7-methanoisoindole-1-carboxamide], the values for the IC50 on SARS-Cov-2 3CLpro, on HRV3C (read-out: HRV IC50 (bound)) and on human cathepsin L were less than 20 nM, greater than 10000 nM and no less than 10000 nM, respectively. For the same molecule, the EC50 in test [1] (read-out: EC50 (class)), in test [2] and in test [3] was less than 100 nM in each case.
`CC1(C(NC(=O)C(F)(F)F)C(=O)N2C[C@H]3[C@@H]([C@H]2C(=O)N[C@H](C#N)C[C@@H]2CCNC2=O)[C@H]2C=C[C@@H]3C2)CC1` (stereo partly drawn) [Example 24, (1R,2S,3S,6R,7S)—N-[(1S)-1-cyano-2-[(3S)-2-oxopyrrolidin-3-yl]ethyl]-4-[2-(1-methylcyclopropyl)-2-(2,2,2-trifluoroacetamido)acetyl]-4-azatricyclo[5.2.1.0^{2,6}]dec-8-ene-3-carboxamide]: the IC50 (in general, the point on the concentration scale where inhibition reaches its midpoint) at SARS-Cov-2 3CLpro is less than 20 nM; on HRV3C (read-out: HRV IC50 (bound)), greater than 10000 nM; on human cathepsin L, no less than 10000 nM. Also, the EC50 (as a rule, the concentration needed to bring the measured effect to its halfway point) is less than 100 nM in test [1] (read-out: EC50 (class)), 100 to 1000 nM in test [2] and 100 to 1000 nM in test [3].
With `CC(C)(C)[C@@H](C(=O)N1C[C@H]2[C@@H]([C@H]1C(=O)N[C@H](C#N)C[C@@H]1CCNC1=O)[C@H]1C=C[C@@H]2C1)N1CCCC1=O` [Compound 70], the IC50 on SARS-Cov-2 3CLpro was 2000 to 20000 nM; at HRV3C (read-out: HRV IC50 (bound)), greater than 10000 nM; at human cathepsin L, no less than 10000 nM. The EC50 in test [1] (read-out: EC50 (bound)) was greater than 10000 nM; in test [2], 10000 to 50000 nM; in test [3] ([…], numeric bounds given instead of class symbols) it was greater than 10000 nM.
Regarding `CC(C)(C)[C@H](NC(=O)C(F)(F)F)C(=O)N1C[C@@H]2[C@@H]3CC[C@@H](C3)[C@@H]2[C@H]1C(=O)N[C@H](C#N)C[C@@H]1CCNC1=O` [Example 12, (1S,3aR,4R,7S,7aS)-N-((S)-1-cyano-2-((S)-2-oxopyrrolidin-3-yl)ethyl)-2-((S)-3,3-dimethyl-2-(2,2,2-trifluoroacetamido)butanoyl)octahydro-1H-4,7-methanoisoindole-1-carboxamide], the values for the IC50 on SARS-Cov-2 3CLpro, at HRV3C (read-out: HRV IC50 (bound)) and against human cathepsin L were less than 20 nM, greater than 10000 nM and no less than 10000 nM, respectively. Moreover, the EC50 in test [1] (read-out: EC50 (class)), in test [2] and in test [3] was less than 100 nM each time.
For the molecule `CC(C)(C)[C@H](NC(=O)C(F)(F)F)C(=O)N1C[C@@H]2[C@@H]3CC[C@@H](C3)[C@@H]2[C@H]1C(=O)N[C@H](C#N)C[C@H]1Cn2nccc2NC1=O` (relative stereo) [Compound 17b], the IC50 is less than 20 nM on SARS-Cov-2 3CLpro, greater than 10000 nM on HRV3C (read-out: HRV IC50 (bound)) and no less than 10000 nM at human cathepsin L. In addition, the EC50 in test [1] (read-out: EC50 (class)), in test [2] and in test [3] was 100 to 1000 nM throughout.
Consider `CC(C)(C)[C@H](NC(=O)C(F)(F)F)C(=O)N1C[C@H]2[C@@H]([C@H]1C(=O)N[C@H](C#N)C[C@@H]1CCNC1=O)[C@H]1C=C[C@@H]2C1` [Example 1, (1S,3aR,4S,7R,7aS)-N-((S)-1-cyano-2-((S)-2-oxopyrrolidin-3-yl)ethyl)-2-((S)-3,3-dimethyl-2-(2,2,2-trifluoroacetamido)butanoyl)-2,3,3a,4,7,7a-hexahydro-1H-4,7-methanoisoindole-1-carboxamide], for which the figures for the IC50 on SARS-Cov-2 3CLpro, on HRV3C (read-out: HRV IC50 (bound)) and on human cathepsin L were less than 20 nM, greater than 10000 nM and no less than 10000 nM, respectively. For the same molecule, the EC50 in test [1] (read-out: EC50 (class)), in test [2] and in test [3] was less than 100 nM each time.
On to `CC(C)(C)[C@H](NC(=O)C(F)(F)F)C(=O)N1C[C@H]2[C@@H]([C@H]1C(=O)N[C@H](C#N)C[C@@H]1CCCNC1=O)[C@H]1C=C[C@@H]2C1` [Example 16, (1S,3aR,4S,7R,7aS)-N-((S)-1-cyano-2-((S)-2-oxopiperidin-3-yl)ethyl)-2-((S)-3,3-dimethyl-2-(2,2,2-trifluoroacetamido)butanoyl)-2,3,3a,4,7,7a-hexahydro-1H-4,7-methanoisoindole-1-carboxamide], for which the figures for the IC50 at SARS-Cov-2 3CLpro, at HRV3C (read-out: HRV IC50 (bound)) and at human cathepsin L were less than 20 nM, greater than 10000 nM and no less than 10000 nM, respectively. Besides, the EC50 in test [1] (read-out: EC50 (class)), in test [2] and in test [3] was less than 100 nM throughout.
With `CC(C)(C)[C@H](NC(=O)C(F)(F)F)C(=O)N1C[C@H]2[C@@H]([C@H]1C(=O)NC(C#N)Cc1ccc[nH]c1=O)[C@H]1C=C[C@@H]2C1` (single isomer, unassigned) [Compound 57, (1S,3aR,4S,7R,7aS)-N-((S*)-1-cyano-2-(2-oxo-1,2-dihydropyridin-3-yl)ethyl)-2-((S)-3,3-dimethyl-2-(2,2,2-trifluoroacetamido)butanoyl)-2,3,3a,4,7,7a-hexahydro-1H-4,7-methanoisoindole-1-carboxamide], the IC50 was 20 to 200 nM at SARS-Cov-2 3CLpro, greater than 10000 nM at HRV3C (read-out: HRV IC50 (bound)) and no less than 10000 nM on human cathepsin L. Also, the EC50 in test [1] (read-out: EC50 (class)), in test [2] and in test [3] was 100 to 1000 nM throughout.
Turning to `CC(C)(C)[C@H](NC(=O)C(F)(F)F)C(=O)N1C[C@H]2[C@@H]([C@H]1C(=O)N[C@H](C#N)C[C@@H]1CC3(CC3)NC1=O)[C@H]1C=C[C@@H]2C1` [Example 14, (1S,3aR,4S,7R,7aS)-N-((S)-1-cyano-2-((R)-5-oxo-4-azaspiro[2.4]heptan-6-yl)ethyl)-2-((S)-3,3-dimethyl-2-(2,2,2-trifluoroacetamido)butanoyl)-2,3,3a,4,7,7a-hexahydro-1H-4,7-methanoisoindole-1-carboxamide], the concentration for half-maximal inhibition (IC50) was less than 20 nM on SARS-Cov-2 3CLpro, greater than 10000 nM on HRV3C (read-out: HRV IC50 (bound)) and no less than 10000 nM against human cathepsin L. The EC50 in test [1] (read-out: EC50 (class)), in test [2] and in test [3] was less than 100 nM throughout.
In the case of `Cc1nnc(N[C@H](C(=O)N2C[C@H]3[C@@H]([C@H]2C(=O)N[C@H](C#N)C[C@@H]2CCNC2=O)[C@H]2C=C[C@@H]3C2)C(C)(C)C)o1` [Compound 43, (1S,3aR,4S,7R,7aS)-N-((S)-1-cyano-2-((S)-2-oxopyrrolidin-3-yl)ethyl)-2-((S)-3,3-dimethyl-2-((5-methyl-1,3,4-oxadiazol-2-yl)amino)butanoyl)-2,3,3a,4,7,7a-hexahydro-1H-4,7-methanoisoindole-1-carboxamide], the figures for the IC50 at SARS-Cov-2 3CLpro, on HRV3C (read-out: HRV IC50 (bound)) and on human cathepsin L were less than 20 nM, greater than 10000 nM and no less than 10000 nM, respectively. Also, the EC50 in test [1] (read-out: EC50 (class)), in test [2] and in test [3] was 100 to 1000 nM throughout.
